The results in this text go back to patent publication US12110289B2, “Heterocyclic compounds, preparation methods and uses thereof” (InventisBio Co., Ltd., priority 2020, dated 2024).

The test system of experiment [1] is Lung cancer cell line NCI-H358 containing KRas G12C mutation. Briefly: Assay for cell proliferation (Cell-titer Glo, 5 days). The experiment is classed as cell-based, human. An outline of the steps: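 NCI-H358 (KRas G12C) cells, 2000 per well, attached overnight at 37 °C, 5% CO2, then treated with compound for 5 days at 0.5% DMSO final. Proliferation measured by CellTiter-Glo luminescence after 10 min at RT.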

The subject of another experiment is NCI-H358 xenograft. Briefly: NSCLC H358 xenograft model, tumor volume. The note with it: for reduction of tumor volume, combined treatment vs either agent alone: FIG. 5. In kind it is in vivo, BALB/c nude mice. As to the method: All the procedures related to animal handling, care and the treatment in this study were performed according to the guidelines approved by the Institutional Animal Care and Use Committee (IACUC) of SIPPER B&K following the guidance of the Association for Assessment and Accreditation of Laboratory Animal Care (AAALAC). At the time of routine monitoring, the animals were checked for any effects of tumor growth on normal behavior such as mobility, food and water consumption (by looking only), body weight gain/loss (body weights were measured twice weekly), eye/hair matting and any other abnormal effect. Death and observed clinical signs were recorded on the basis of the numbers of animals within each subset.
The NCI-H358, SW837, NCI-H2122 tumor cells were purchased from the American Type Culture Collection (ATCC). Cells were maintained in vitro as monolayer cultured in RPMI-1640 or DMEM medium supplemented with 10% fetal bovine serum, 50 IU/ml penicillin/streptomycin (GIBCO) at 37° C. in an atmosphere of 5% CO2 in air. The tumor cells were routinely sub cultured twice weekly by trypsin-EDTA treatment. The cells growing in an exponential growth phase were harvested and counted for tumor inoculation.
For tumor bearing models, female 6- to 8-week-old athymic BALB/c nude mice were used for human cancer cell lines. Each mouse was inoculated subcutaneously at the right flank with tumor cells (10×10^6) in 0.1 ml of PBS. The treatments were started when the average tumor size reached approximately 200-250 mm^3. Carboplatin, Cisplatin was injected twice a week by i.p. Vehicles and other test articles were given orally as a suspension by gavage once daily during the study or treatment period.
Tumor volume was calculated by measuring two perpendicular diameters using the following formula: (L×W 2)/2 in which L and W refer to the length and width tumor diameter, respectively. Results are expressed as mean and standard deviation of the mean.

With `C=CC(=O)N1C[C@H](C)N(c2nc(=O)n(-c3c(C4CC4)ncnc3C3CC3)c3nc(-c4c(N)cccc4F)c(Cl)cc23)C[C@H]1C` [Compound 126], the “potency in inhibiting KRAS G12C compared with corresponding isopropyl analogs” value in experiment [1] is on record as “better potency”. The IC50 in experiment [1] (Homo sapiens, NCI-H358, 120 h, NCI-H358, 5 days, Cell-titer Glo, read-out: IC50 (nM), Inhibition of NCI-H358 Cell Proliferation) came to 0.6 nM. In experiment [1] (NCI-H358 IC50 comparison), the “fold more potent: 2-amino-6-fluoro-phenyl compound vs. corresponding 2-fluoro-phenyl compound at R8” value is “about 15 ×”. Moreover, the “reducing tumor volume compared with AMG510” value in the experiment on NCI-H358 xenograft (30 mg/kg oral once daily vs AMG510 at 30 mg/kg, FIG. 2) was “more effective than AMG510”. The “reduction of tumor volume, combined treatment vs either agent alone” value with NCI-H358 xenograft (Compound 126 at 5 mg/kg combined with RMC-4550 at 10 mg/kg) and in the experiment on NCI-H358 xenograft (Compound 126 at 5 mg/kg combined with cisplatin at 2 mg/kg) was “much better reduction of tumor volume” each time.
